Results from US10294218B2 (VIROSTATICS SRL, priority 2012, dated 2019).
Read-outs that look alike come from different tables or passages of the source.

Columns and labels:
[1] = tested on: laboratory strain of HIV-1; experiment: Antiviral activity against HIV (AV), p24 in infected activated primary T cells; type: cell-based; conditions: for IC50: Human immunodeficiency virus 1, T-cell, read-out: AV50 (Inhibitory concentration 50% for antiviral activity); for antiviral and antiproliferative activity and cytotoxicity profile (in words): summary of AV, AP and cytotoxicity assays
Description: Activated primary T cells are infected with a laboratory strain of HIV-1, then cultured and exposed to different concentrations of the test compounds. HIV replication is analysed by measuring the viral protein p24 and expressed as percentage of untreated control. Inhibition of viral replication (AV) is then calculated (AV=100 minus the % p24 compared to control, AV of control=0%). Inhibitory concentration 50% for antiviral activity (AV50) is calculated.
(§1) In Tables 2, 3 and 4, ND means Not Determined.

[2] = tested on: Primary T cells; experiment: Antiproliferative activity (AP), mitotic index by flow cytometry; type: cell-based; conditions: T-cell, read-out: AP50 (Inhibitory concentration 50% for antiproliferative capacity)
Description: Primary T cells are cultured and exposed to different concentrations of the test compounds. Cell proliferation is analysed by measuring mitotic index (ie the number of cell divisions a population of cells undergoes) through flow cytometry based techniques. Mitotic index is expressed as percentage of untreated control. Inhibition of cell proliferation (AP) is then calculated (AP=100 minus % mitotic index compared to control, AP of control=0%). Inhibitory concentration 50% for antiproliferative capacity (AP50) is calculated.
as §1

| Structure (SMILES) | IC50 [1] [nM] | IC50 ([2]; primary T cells, mitotic index) [nM] | antiviral and antiproliferative activity and cytotoxicity profile (in words) [1] | IC50 [2] [nM] | IC50 ([1]; HIV-1 infected activated primary T cells, p24) [nM] |
| --- | --- | --- | --- | --- | --- |
| COc1ccccc1-c1cc(Nc2ccc(Cl)c(CO)c2)ncn1 [Example 6, (2-Chloro-5-(6-(2-methoxyphenyl)pyrimidin-4-ylamino)phenyl)methanol] | > 1500 | > 500 |  |  |  |
| COc1ccc(Nc2cc(-c3ccccc3OC)ncn2)cc1NS(C)(=O)=O [Example 9, N-(2-Methoxy-5-(6-(2-methoxyphenyl)pyrimidin-4-ylamino)phenyl)methanesulfonamide] | < 1500 | > 1500 |  |  |  |
| CNS(=O)(=O)Nc1cc(Nc2cc(-c3ccccc3OC)ncn2)ccc1OC [Example 10, (2-Methoxy-5-(6-(2-methoxyphenyl)pyrimidin-4-ylamino)phenyl)(methylsulfamoyl)amine] | 800 | 500 | good antiviral and antiproliferative activity and a good cytotoxicity profile |  |  |
| COc1ccc(Nc2cc(-c3ccccc3OC)ncn2)cc1NS(=O)(=O)NC1CCCCC1 [Example 13, (2-Methoxy-5-(6-(2-methoxyphenyl)pyrimidin-4-ylamino)phenyl) (cyclohexylsulfamoyl)amine] | 300 | 600 | good antiviral and antiproliferative activity and a good cytotoxicity profile |  |  |
| COc1ccccc1-c1cc(Nc2ccc(Cl)c(Cn3cnc4ccccc43)c2)ncn1 [Example 16, N-(3-((1H-benzo[d]imidazol-1-yl)methyl)-4-chlorophenyl)-6-(2-methoxyphenyl)pyrimidin-4-amine] | 110 |  | good antiviral and antiproliferative activity and a good cytotoxicity profile | 100 |  |
| COc1ccccc1-c1cc(Nc2ccc(N3CCN(C)CC3)c(CO)c2)ncn1 [Example 17] | > 1500 | 350 |  |  |  |
| CCOC(=O)c1cc(Nc2cc(-c3ccccc3OC)ncn2)ccc1N1CCOCC1 [Example 18, Ethyl 5-(6-(2-methoxyphenyl)pyrimidin-4-ylamino)-2-morpholinobenzoate] | > 1500 | > 500 |  |  |  |
| COc1ccccc1-c1cc(Nc2ccc(N3CCOCC3)c(CO)c2)ncn1 [Example 19, (5-(6-(2-Methoxyphenyl)pyrimidin-4-ylamino)-2-morpholinophenyl)methanol] | 1000 | > 500 |  |  |  |
| COC(=O)c1cc(Nc2cc(-c3ccccc3OC)ncn2)ccc1O [Example 21, Methyl 2-hydroxy-5-(6-(2-methoxyphenyl)pyrimidin-4-ylamino)benzoate] | < 1500 | > 500 |  |  |  |
| COc1ccc(Nc2cc(-c3ccccc3OC)ncn2)cc1F [Example 22, N-(3-Fluoro-4-methoxyphenyl)-6-(2-methoxyphenyl)pyrimidin-4-amine] | < 1500 | > 500 |  |  |  |
| COc1ccc(Nc2cc(-c3ccccc3OC)ncn2)cc1C(=O)NCc1ccccc1 [Example 23, N-Benzyl-2-methoxy-5-(6-(2-methoxyphenyl)pyrimidin-4-ylamino)benzamide] | > 500 |  |  | > 500 |  |
| COc1ccc(Nc2cc(-c3ccccc3OC)ncn2)cc1CO [Example 24, (2-Methoxy-5-(6-(2-methoxyphenyl)pyrimidin-4-ylamino)phenyl)methanol] | > 500 |  |  | > 500 |  |
| CNC(=O)c1cc(Nc2cc(-c3ccccc3OC)ncn2)ccc1OC [Example 25, 2-Methoxy-5-(6-(2-methoxyphenyl)pyrimidin-4-ylamino)-N-methylbenzamide] | > 500 |  |  | > 500 |  |
| COc1ccc(Nc2cc(-c3ccccc3OC)ncn2)cc1OC(=O)C(C)(C)C [Example 26, 2-methoxy-5-(6-(2-methoxyphenyl)pyrimidin-4-ylamino)phenyl pivalate] |  | 100 | good antiviral and antiproliferative activity and a good cytotoxicity profile |  | 100 |
| COc1ccc(Nc2cc(-c3ccccc3OC)ncn2)cc1C(=O)NCc1ccncc1 [Example 28, 2-Methoxy-5-(6-(2-methoxyphenyl)pyrimidin-4-ylamino)-N-(pyridin-4-ylmethyl)benzamide] | > 500 |  |  | > 500 |  |
| COc1ccc(Nc2cc(-c3ccccc3OC)ncn2)cc1C=O [Example 29, 2-Methoxy-5-(6-(2-methoxyphenyl)pyrimidin-4-ylamino)benzaldehyde] | > 500 | > 500 |  |  |  |

| Structure (SMILES) | IC50 [1] [nM] | IC50 ([2]; primary T cells, mitotic index) [nM] | antiviral and antiproliferative activity and cytotoxicity profile (in words) [1] | IC50 [2] [nM] | IC50 ([1]; HIV-1 infected activated primary T cells, p24) [nM] |
| --- | --- | --- | --- | --- | --- |
| COC(=O)c1cc(Nc2cc(-c3ccccc3OC)ncn2)ccc1OC [Example 30, Methyl 2-methoxy-5-(6-(2-methoxyphenyl)pyrimidin-4-ylamino)benzoate] | > 1500 | > 500 |  |  |  |
| COc1ccc(Nc2cc(-c3ccccc3OC)ncn2)cc1Cn1cnc2ccccc21 [Example 31, N-(3-((1H-Benzo[d]imidazol-1-yl)methyl)-4-methoxyphenyl)-6-(2-methoxyphenyl)pyrimidin-4-amine] | 200 |  | good antiviral and antiproliferative activity and a good cytotoxicity profile | 350 |  |
| COc1ccc(Nc2cc(-c3ccccc3OC)ncn2)cc1O [Example 32, 2-Methoxy-5-(6-(2-methoxyphenyl)pyrimidin-4-ylamino)phenol] | 150 | 70 | good antiviral and antiproliferative activity and a good cytotoxicity profile |  |  |
| COc1ccccc1-c1cc(Nc2ccc(N3CCN(C)CC3)c(S(N)(=O)=O)c2)ncn1 [Example 38, 5-(6-(2-Methoxyphenyl)pyrimidin-4-ylamino)-2-(4-methylpiperazin-1-yl)benzenesulfonamide] | < 1500 | > 500 |  |  |  |
| CCOc1ccc(Nc2cc(-c3ccccc3OC)ncn2)cc1Cn1cnc2ccccc21 [Example 39, N-(3-((1H-Benzo[d]imidazol-1-yl)methyl)-4-ethoxyphenyl)-6-(2-methoxyphenyl)pyrimidin-4-amine] | > 1000 | 300 |  |  |  |
| COc1ccccc1-c1cc(Nc2ccc(F)c(Cn3cnc4ccccc43)c2)ncn1 [Example 40, N-(3-((1H-Benzo[d]imidazol-1-yl)methyl)-4-fluorophenyl)-6-(2-methoxyphenyl)pyrimidin-4-amine] | 500 | > 200 |  |  |  |
| COc1ccc(Nc2cc(-c3ccccc3OC)ncn2)cc1N [Example 41, 4-Methoxy-N1-(6-(2-methoxyphenyl)pyrimidin-4-yl)benzene-1,3-diamine] | 60 |  | good antiviral and antiproliferative activity and a good cytotoxicity profile | 80 |  |
| COc1ccccc1-c1cc(Nc2ccc(N(C)C)c(Cn3cnc4ccccc43)c2)ncn1 [Example 42, 2-((1H-Benzo[d]imidazol-1-yl)methyl)-N4-(6-(2-methoxyphenyl)pyrimidin-4-yl)-N1,N1-dimethylbenzene-1,4-diamine] |  |  |  | 1800 |  |
| COc1ccc(Nc2cc(-c3ccccc3OC)ncn2)cc1CN [Example 43, N-(3-(Aminomethyl)-4-methoxyphenyl)-6-(2-methoxyphenyl)pyrimidin-4-amine] |  | 500 | good antiviral and antiproliferative activity and a good cytotoxicity profile |  |  |
| COc1ccccc1-c1cc(Nc2ccc(Cl)c(C(N)=O)c2)ncn1 [Example 44, 2-Chloro-5-(6-(2-methoxyphenyl)pyrimidin-4-ylamino)benzamide] |  | 5000 |  |  |  |
| COc1ccc(Nc2cc(-c3ccccc3OC)ncn2)cc1C(N)=O [Example 45, 2-methoxy-5-(6-(2-methoxyphenyl)pyrimidin-4-ylamino)benzamide] | 50 |  | good antiviral and antiproliferative activity and a good cytotoxicity profile | 80 |  |
| COc1ccc(Nc2cc(-c3ccc(F)cc3OC)ncn2)cc1N [Example 64] | 5000 | < 80 | good antiviral and antiproliferative activity and a good cytotoxicity profile |  |  |
| COc1ccc(Nc2cc(-c3cc(F)ccc3OC)ncn2)cc1N [Example 75, N^1-[6-(5-Fluoro-2-methoxy-phenyl)-pyrimidin-4-yl]-4-methoxy-benzene-1,3-diamine] | 10 | < 80 | good antiviral and antiproliferative activity and a good cytotoxicity profile |  |  |
| COc1ccc(Nc2cc(-c3ccccc3OC(C)C)ncn2)cc1N [Example 79, N^1-[6-(2-Isopropoxy-phenyl)-pyrimidin-4-yl]-4-methoxy-benzene-1,3-diamine] | 8 | < 80 | good antiviral and antiproliferative activity and a good cytotoxicity profile |  |  |
| CCOc1ccc(Nc2cc(-c3ccccc3OC)ncn2)cc1C(N)=O [Example 111, 2-Ethoxy-5-[6-(2-methoxy-phenyl)-pyrimidin-4-ylamino]-benzamide] | 7 | 16 | good antiviral and antiproliferative activity and a good cytotoxicity profile |  |  |
